These results are taken from patent publication US5644059A, “1,4-dihydropyridine derivatives and methods of producing the same” (Fujirebio Inc., priority 1990, dated 1997).

The assay has as its system platelet aggregation. Briefly: Test for platelet aggregation-inhibiting activity of rabbit (PAF-induced aggregation in platelet rich plasma). The settings on record: rabbit PRP, 37°C, 10 minutes incubation, aggregation by PAF (10 μl); test compound concentration not given. Also on record: dose or concentration left out as unconfirmed. Type of assay: cell-based. As for the experimental part: 2. Test for platelet aggregation-inhibiting activity of rabit
A blood of a rabbit (Japanese white; male; 2.5-3.0 kg) was exsanguinated from a carotid of the rabbit, and nine parts of the blood were mixed with one part of a 3.8% aqueous solution of sodium citrate. The mixture was centrifuged at 1100 rpm at 20°C. for 15 minutes. The upper layer is a platelet rich plasma (PRP), and the lower layer was centrifuged at 2500 rpm at 20° C. for 10 minutes, so that a platelet poor plasma (PPP) was obtained.
10 μl of a solution of the compound to be tested was added to 200 μl of PRP, and the mixture was subjected to incubation at 37°C. for 10 minutes. To the mixture was added 10 μl of a platelet activating factor (PAF)(10 mg/ml). The agglutination was measured by Agricometer (NKK, PAT-4A).
Consider `COC(=O)C1=C(C)NC(C)=C(C(=O)NCC(=O)N2CCN(c3ccccc3)CC2)C1c1cccc([N+](=O)[O-])c1` (stereo not shown) [Example 58, methyl 1,4-dihydro-2,6-dimethyl-4-(3-nitrophenyl)-5-[N-[(4-phenylpiperazinyl)carbonylmethyl]-carbamoyl]pyridine-3-carboxylate], for which the “Platelet Aggregation-Inhibiting Activity” value is listed as 22.1%.

`CC1=C(C(=O)NCC(=O)OC(C)(C)C)C(c2cccc([N+](=O)[O-])c2)C(C(=O)N[C@H](C(=O)OC(C)(C)C)C(C)C)=C(C)N1` (single isomer, unassigned) [52 (Compound a)]: the “Platelet Aggregation-Inhibiting Activity” value was found to be 29.2%.

Take `COC(=O)C1=C(C)NC(C)=C(C(=O)N[C@@H](C(=O)OC(C)(C)C)C(C)C)C1c1cccc([N+](=O)[O-])c1` (single isomer, unassigned) [2 (Compound a)]: the “Platelet Aggregation-Inhibiting Activity” value is recorded as 25.5%.

With `CCOC(=O)c1nccnc1NC(=O)C1=C(C)NC(C)=C(C(=O)OC)C1c1cccc([N+](=O)[O-])c1` (stereo not shown) [Example 70, ethyl 3-[N-[1,4-dihydro-2,6-dimethyl-5-methoxycarbonyl-4-(3-nitrophenyl)pyridine-3-carbonyl]amino]pyrazine-2-carboxylate], the “Platelet Aggregation-Inhibiting Activity” value turned out to be 27.1%.

On to `CCOC(=O)C1(NC(=O)C2=C(C)NC(C)=C(C(=O)OC)C2c2cccc([N+](=O)[O-])c2)CCCCC1` (stereo not shown) [Example 67, ethyl 1-[N-[1,4-dihydro-2,6-dimethyl-5-methoxycarbonyl-4-(3-nitrophenyl)pyridine-3-carbonyl]amino]cyclohexanecarboxylate], for which the “Platelet Aggregation-Inhibiting Activity” value is 33.8%.

With `COC(=O)C1=C(C)NC(C)=C(C(=O)NCC(=O)OC(C)(C)C)[C@@H]1c1cccc([N+](=O)[O-])c1` [Example 79, (+)-t-butyl (S)-[2-[N-[1,4-dihydro-2,6-dimethyl-5-methoxycarbonyl-4-(3-nitrophenyl)pyridin-3-yl]-carbonyl]amino]acetate], the “Platelet Aggregation-Inhibiting Activity” value was 100%.

For `COC(=O)C1=C(C)NC(C)=C(C(=O)N[C@H](C(=O)OC(C)(C)C)C(C)C)C1c1cccc(Cl)c1` (single isomer, unassigned) [18 (Compound a)], the “Platelet Aggregation-Inhibiting Activity” value was determined as 33.8%.

For `COC(=O)C1=C(C)NC(C)=C(C(=O)NCC(=O)OC(C)C)C1c1cccc([N+](=O)[O-])c1` (stereo not shown) [Example 63, isopropyl 2-[N-[1,4-dihydro-2,6-dimethyl-5-methoxycarbonyl-4-(3-nitrophenyl)pyridine-3-carbonyl]-amino]acetate], the “Platelet Aggregation-Inhibiting Activity” value is 100%.

As for `COC(=O)C1=C(C)NC(C)=C(C(=O)NCC(=O)OC(C)(C)C)C1c1cccc(C)c1` (stereo not shown) [Example 35, t-butyl 2-[N-[1,4-dihydro-2,6-dimethyl-5-methoxycarbonyl-4-(3-methylphenyl)pyridine-3-carbonyl]-amino]acetate], the “Platelet Aggregation-Inhibiting Activity” value is reported as 32.3%.

For `COC(=O)C1=C(C)NC(C)=C(C(=O)N[C@@H](C(=O)OC(C)(C)C)C(C)C)C1c1cccc([N+](=O)[O-])c1` (stereo partly shown) [2 (Compound b)], the “Platelet Aggregation-Inhibiting Activity” value was determined as 98.2%.

Take `COC(=O)C1=C(C)NC(C)=C(C(=O)N[C@H](C(=O)OC(C)(C)C)C(C)C)C1c1ccccc1` (single isomer, unassigned) [24 (Compound a)]: the “Platelet Aggregation-Inhibiting Activity” value is 24.3%.

For `COC(=O)C1=C(C)NC(C)=C(C(=O)NCC(=O)OC(C)(C)C)C1c1ccccc1Cl` (stereo not shown) [Example 8, t-butyl 2-[N-[1,4-dihydro-2,6-dimethyl-5-methoxycarbonyl-4-(2-chlorophenyl)pyridine-3-carbonyl]-amino]acetate], the “Platelet Aggregation-Inhibiting Activity” value turned out to be 39.1%.

Consider `COC(=O)C1=C(C)NC(C)=C(C(=O)N[C@H](C(=O)OC(C)(C)C)C(C)C)C1c1cccc(OC)c1` (stereo partly drawn) [Example 23, t-butyl 2-(S)-[N-[1,4-dihydro-2,6-dimethyl-5-methoxycarbonyl-4-(3-methoxyphenyl)pyridine-3-carbonyl]-amino]-3-methylbutylate], for which the “Platelet Aggregation-Inhibiting Activity” value is listed as 33.6%.
